The target in one data set is 3CLpro of MERS-CoV (Middle East respiratory syndrome-related coronavirus, UniProt K9N7C7). As to the kind of experiment: biochemical. In kind it is biochemical.
Data set [1] can be described thus: Nonspecific cytotoxic effects (CC50), CytoTox 96 kit.
Another data set deals with T1, 3CLpro of SARS-CoV-2 (Severe acute respiratory syndrome coronavirus 2, UniProt P0DTD1).
T1 construct: The codon-optimized cDNA of full length of 3CLpro of SARS-CoV-2; 6xHis (N); made in house; pET-28a(+) vector (points to E. coli, my inference)
Briefly: biochemical. In kind it is biochemical.

Data set [2] deals with NV in the replicon harboring cells (HG23 cells). Briefly: microbe, parasite or virus in culture. The class given is cell-based, norovirus (NV). The following applies: read-out: EC50 (μM) ± SD.
A further data set concerns the target NV 3CLpro (Norovirus, UniProt Q83883). Briefly: biochemical. The class given is biochemical. The following applies: read-out: IC50 (μM) ± SD.

Where two headings read alike, the source gives them in different places. Some results are limits rather than exact numbers.

Chain of NV 3CLpro (Q83883 1101-1281): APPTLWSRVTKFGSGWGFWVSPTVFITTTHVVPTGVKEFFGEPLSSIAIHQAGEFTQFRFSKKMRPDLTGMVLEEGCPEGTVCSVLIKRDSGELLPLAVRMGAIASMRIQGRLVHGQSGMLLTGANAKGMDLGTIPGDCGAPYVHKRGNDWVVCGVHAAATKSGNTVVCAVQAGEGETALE
Chain of 3CLpro of MERS-CoV (K9N7C7 3248-3553 limits assumed): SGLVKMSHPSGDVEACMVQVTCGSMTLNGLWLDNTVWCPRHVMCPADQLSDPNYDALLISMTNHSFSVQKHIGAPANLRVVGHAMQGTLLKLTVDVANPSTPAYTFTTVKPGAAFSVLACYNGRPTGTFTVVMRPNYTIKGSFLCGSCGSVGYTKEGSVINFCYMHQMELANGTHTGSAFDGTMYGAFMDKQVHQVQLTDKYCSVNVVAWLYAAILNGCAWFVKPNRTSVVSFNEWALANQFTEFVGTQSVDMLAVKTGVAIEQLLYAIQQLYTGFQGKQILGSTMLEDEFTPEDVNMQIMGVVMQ

The term IC50 denotes the concentration that gives 50% inhibition. As a reminder, the CC50 is the concentration at which the toxic effect on the cells reaches its halfway point. A lower CC50 goes with greater toxicity to the cells. For `CCCC(OC(=O)N[C@@H](CC(C)C)C(=O)N[C@@H](C[C@@H]1CCNC1=O)C(O)S(=O)(=O)O)c1ccccc1` (mixture of isomers) [Compound 23c, Sodium(2S)-1-hydroxy-2-((2S)-4-methyl-2-(((1-phenylbutoxy)carbonyl)amino)pentanamido)-3-((S)-2-oxopyrrolidin-3-yl)propane-1-sulfonate], on 3CLpro of MERS-CoV (read-out: IC50), the IC50 was found to be 130 nM. In data set [1], the CC50 at 72 h is > 100 µM.

With `CC(C)C[C@H](NC(=O)OC1CCC(C)(C)CC1)C(=O)N[C@@H](C[C@@H]1CCNC1=O)C(O)S(=O)(=O)O` (stereo partly drawn) [Compound 1c, Sodium (2S)-2-((S)-2-((((4,4-dimethylcyclohexyl)oxy)carbonyl)amino)-4-methylpentan amido)-1-hydroxy-3-((S)-2-oxopyrrolidin-3-yl)propane-1-sulfonate], the 50% inhibitory concentration (IC50) against 3CLpro of MERS-CoV was 90 nM; at 3CLpro of SARS-CoV-2 (read-out: IC50), 240 nM. Besides, the CC50 at 72 h in data set [1] was > 100 µM.

Take `CCCCC1CCC(OC(=O)NC(CC(C)C)C(=O)NC(CC2CCNC2=O)C(O)S(=O)(=O)O)CC1` [Compound 4c, Sodium (2S)-2-((S)-2-(((((1s,4S)-4-butylcyclohexyl)oxy)carbonyl)amino)-4-methylpentan amido)-1-hydroxy-3-((S)-2-oxopyrrolidin-3-yl)propane-1-sulfonate]: the IC50 at 3CLpro of MERS-CoV is 150 nM. In addition, the CC50 at 72 h in data set [1] is > 100 µM.

As usually defined, the EC50 is the concentration that produces a half-maximal response. As to `O=C[C@H](C[C@@H]1CCNC1=O)NC(=O)[C@H](CC1CCCCC1)NC(=O)OCCCc1cccc(Cl)c1` [Compound 5j (Example 5)], the EC50 in data set [2] was found to be 0.08 ± 0.01 µM. The compound further yielded a CC50 with HG23 cells of 30.3 ± 2.83 µM.

As for `CC(C)C[C@H](NC(=O)OCCCc1ccccc1)C(=O)N[C@H](C=O)C[C@@H]1CCNC1=O` [Compound 5m], the half-inhibitory concentration (IC50) on NV 3CLpro worked out at 0.75 ± 0.07 µM. Moreover, the 50% effective concentration (EC50) in data set [2] was 0.77 ± 0.06 µM. In addition, in the data set on HG23 cells, the CC50 is > 100 µM.

`CC(C)C[C@H](NC(=O)OCCCc1cccc(Cl)c1)C(=O)N[C@H](C=O)C[C@@H]1CCNC1=O` [Compound 5n]: the IC50 at NV 3CLpro turned out to be 0.26 ± 0.08 µM. Also, the concentration for a half-maximal effect (EC50) in data set [2] is 0.16 ± 0.06 µM. Also, in the data set with HG23 cells, the CC50 was > 100 µM.

With `CC(C)C[C@H](NC(=O)OCC(C)(C)Cc1cccc(Cl)c1)C(=O)N[C@H](C=O)C[C@@H]1CCNC1=O` [Compound 5o], in data set [2], the 50% effective concentration (EC50) amounted to 0.14 ± 0.04 µM. Further, the 50% cytotoxic concentration (CC50) with HG23 cells was > 100 µM.

For the compound `CC(C)C[C@H](NC(=O)OCCCc1ccccc1)C(=O)N[C@@H](C[C@@H]1CCNC1=O)C(O)S(=O)(=O)O` (stereo partly drawn) [Compound 6m], the IC50 at NV 3CLpro was determined as 0.6 ± 0.14 µM. Moreover, the concentration for a half-maximal effect (EC50) in data set [2] was found to be 0.85 ± 0.07 µM. The CC50 with HG23 cells is > 100 µM.

`CC(C)C[C@H](NC(=O)OCCCC1CCCCC1)C(=O)N[C@@H](C[C@@H]1CCNC1=O)C(O)S(=O)(=O)O` (stereo partly drawn) [Compound 7f (Scheme 1), sodium (2S)-2-((S)-2-(((3-cyclohexylpropoxy)carbonyl)amino)-4-methylpentanamido)-1-hydroxy-3-((S)-2-oxopyrrolidin-3-yl)propane-1-sulfonate]: it took 640 nM to reach half-maximal inhibition at 3CLpro of MERS-CoV (IC50). In data set [1], the cytotoxic concentration (CC50) at 72 h is > 100 µM.

With `O=C(N[C@@H](CC1CCCCC1)C(=O)N[C@@H](C[C@@H]1CCNC1=O)C(O)S(=O)(=O)O)OC1CCC(F)(F)CC1` (stereo partly drawn) [Compound 7i (Scheme 1), sodium (2S)-2-((S)-3-cyclohexyl-2-((((4,4-difluorocyclohexyl)oxy)carbonyl)amino)propan-amido)-1-hydroxy-3-((S)-2-oxopyrrolidin-3-yl)propane-1-sulfonate], at 3CLpro of MERS-CoV, the IC50 is > 50000 nM. Also, the half-maximal cytotoxic concentration (CC50) at 72 h in data set [1] is > 100 µM.

On to `CCCCCC(=O)OC([C@H](C[C@@H]1CCNC1=O)NC(=O)[C@H](CC1CCCCC1)NC(=O)OCC(C)(C)Cc1cccc(Cl)c1)S(=O)(=O)O` (stereo partly drawn) [Compound 7l], for which the EC50 in data set [2] is 0.08 ± 0.02 µM. In the data set on HG23 cells, it took 20.7 ± 4.03 µM to reach half-maximal cytotoxicity (CC50).

For the compound `CCCC1CCC(COC(=O)NC(CC(C)C)C(=O)NC(CC2CCNC2=O)C(O)S(=O)(=O)O)CC1` [Compound 8c, Sodium (2S)-1-hydroxy-2-((S)-4-methyl-2-(((((1r,4R)-4-propylcyclohexyl)methoxy)carbonyl)amino)pentanamido)-3-(2-oxopyrrolidin-3-yl) propane-1-sulfonate], the half-inhibitory concentration (IC50) turned out to be 110 nM against 3CLpro of MERS-CoV and 210 nM at 3CLpro of SARS-CoV-2. In data set [1], the CC50 at 72 h is > 100 µM.

With `CC(C)C[C@H](NC(=O)OC(C)C1CCC(F)(F)CC1)C(=O)N[C@@H](C[C@@H]1CCNC1=O)C(O)S(=O)(=O)O` (stereo partly drawn) [Compound 12c, Sodium (2S)-2-((2S)-2-(((1-(4,4-difluorocyclohexyl)ethoxy)carbonyl)amino)-4-methylpentan amido)-1-hydroxy-3-((S)-2-oxopyrrolidin-3-yl)propane-1-sulfonate], the IC50 against 3CLpro of MERS-CoV worked out at 120 nM; on 3CLpro of SARS-CoV-2, 200 nM. In addition, the CC50 at 72 h in data set [1] is > 100 µM.

For the compound `CC(C)C[C@H](NC(=O)OC(Cc1ccccc1)C1CCC(F)(F)CC1)C(=O)N[C@@H](C[C@@H]1CCNC1=O)C(O)S(=O)(=O)O` (stereo partly drawn) [Compound 14c, Sodium (2S)-2-((2S)-2-(((1-(4,4-difluorocyclohexyl)-2-phenylethoxy)carbonyl)amino)-4-methylpentanamido)-1-hydroxy-3-((S)-2-oxopyrrolidin-3-yl)propane-1-sulfonate], the half-maximal inhibitory concentration (IC50) at 3CLpro of MERS-CoV came out at 160 nM; on 3CLpro of SARS-CoV-2 it was 220 nM. Besides, the CC50 at 72 h in data set [1] was > 100 µM.

`CC(C)C[C@H](NC(=O)OCc1ccccc1F)C(=O)N[C@@H](C[C@@H]1CCNC1=O)C(O)S(=O)(=O)O` (stereo partly drawn) [Compound 17c, Sodium (2S)-2-((S)-2-((((2-fluorobenzyl)oxy)carbonyl)amino)-4-methylpentanamido)-1-hydroxy-3-((S)-2-oxopyrrolidin-3-yl)propane-1-sulfonate] returned a half-maximal inhibitory concentration (IC50) against 3CLpro of SARS-CoV-2 of 400 nM. In data set [1], the cytotoxic concentration (CC50) at 72 h was > 100 µM.

Turning to `CC(C)C[C@H](NC(=O)OCc1cccc(F)c1)C(=O)N[C@H](C=O)C[C@@H]1CCNC1=O` [Compound 18b, 3-Fluorobenzyl ((S)-4-methyl-1-oxo-1-(((S)-1-oxo-3-((S)-2-oxopyrrolidin-3-yl)propan-2-yl)amino)pentan-2-yl)carbamate], the 50% inhibitory concentration (IC50) against 3CLpro of SARS-CoV-2 was found to be 320 nM. Besides, the cytotoxic concentration (CC50) at 72 h in data set [1] was > 100 µM.

In the case of `CC(C)C[C@H](NC(=O)OCc1cccc(F)c1)C(=O)N[C@@H](C[C@@H]1CCNC1=O)C(O)S(=O)(=O)O` (stereo partly drawn) [Compound 18c, Sodium (2S)-2-((S)-2-((((3-fluorobenzyl)oxy)carbonyl)amino)-4-methylpentanamido)-1-hydroxy-3-((S)-2-oxopyrrolidin-3-yl)propane-1-sulfonate], the IC50 on 3CLpro of MERS-CoV turned out to be 80 nM; against 3CLpro of SARS-CoV-2, 310 nM. Moreover, the 50% cytotoxic concentration (CC50) at 72 h in data set [1] was > 100 µM.

For `CC(C)C[C@H](NC(=O)OCc1ccc(F)cc1)C(=O)N[C@@H](C[C@@H]1CCNC1=O)C(O)S(=O)(=O)O` (stereo partly drawn) [Compound 19c, Sodium (2S)-2-((S)-2-((((4-fluorobenzyl)oxy)carbonyl)amino)-4-methylpentanamido)-1-hydroxy-3-((S)-2-oxopyrrolidin-3-yl)propane-1-sulfonate], half-maximal inhibition against 3CLpro of SARS-CoV-2 (IC50) required 380 nM. Further, the CC50 at 72 h in data set [1] is > 100 µM.

`CC(C)C[C@H](NC(=O)OCc1c(F)c(F)c(F)c(F)c1F)C(=O)N[C@@H](CC1CCNC1=O)C(O)S(=O)(=O)O` (stereo partly drawn) [Compound 21c, Sodium (2S)-1-hydroxy-2-((S)-4-methyl-2-((((perfluorophenyl)methoxy)carbonyl)amino)pentanamido)-3-(2-oxopyrrolidin-3-yl) propane-1-sulfonate]: the concentration for half-maximal inhibition (IC50) at 3CLpro of MERS-CoV was 70 nM. Besides, the cytotoxic concentration (CC50) at 72 h in data set [1] was > 100 µM.

As for `[2H]C([2H])(OC(=O)N[C@@H](CC(C)C)C(=O)N[C@H](C=O)CC1CCNC1=O)c1c(F)c(F)c(F)c(F)c1F` (stereo partly drawn) [Compound 22b, (Perfluorophenyl)methyl-d2 ((2S)-4-methyl-1-oxo-1-(((2S)-1-oxo-3-(2-oxopyrrolidin-3-yl)propan-2-yl)amino)pentan-2-yl) carbamate], the concentration for half-maximal inhibition (IC50) on 3CLpro of SARS-CoV-2 was determined as 630 nM. In data set [1], the CC50 at 72 h was > 100 µM.

`[2H]C([2H])(OC(=O)N[C@@H](CC(C)C)C(=O)N[C@@H](CC1CCNC1=O)C(O)S(=O)(=O)O)c1c(F)c(F)c(F)c(F)c1F` (stereo partly drawn) [Compound 22c, Sodium (2S)-1-hydroxy-2-((S)-4-methyl-2-((((perfluorophenyl)methoxy-d2)carbonyl)amino)pentanamido)-3-(2-oxopyrrolidin-3-yl) propane-1-sulfonate]: at 3CLpro of SARS-CoV-2, half-maximal inhibition (IC50) was put at 450 nM. The CC50 at 72 h in data set [1] was > 100 µM.

In the case of `CCCC(OC(=O)N[C@@H](CC(C)C)C(=O)N[C@H](C=O)C[C@@H]1CCNC1=O)c1ccccc1` (stereo partly drawn) [Compound 23b, 1-Phenylbutyl ((S)-4-methyl-1-oxo-1-(((S)-1-oxo-3-((S)-2-oxopyrrolidin-3-yl)propan-2-yl)amino)pentan-2-yl)carbamate], the “fold more potent than the corresponding 24b/c aldehyde and bisulfite adducts” value on 3CLpro of SARS-CoV-2 is 27 fold. The IC50 on 3CLpro of SARS-CoV-2 (read-out: IC50 against 3CLpro) turned out to be 150 nM. Also, the 50% cytotoxic concentration (CC50) at 72 h in data set [1] was > 100 µM.

The compound `CC(C)C[C@H](NC(=O)OC(Cc1ccccc1)c1ccccc1)C(=O)N[C@H](C=O)C[C@@H]1CCNC1=O` (stereo partly drawn) [Compound 24b, 1,2-Diphenylethyl ((S)-4-methyl-1-oxo-1-(((S)-1-oxo-3-((S)-2-oxopyrrolidin-3-yl)propan-2-yl)amino)pentan-2-yl)carbamate] displayed an IC50 against 3CLpro of SARS-CoV-2 of 4100 nM. Also, the CC50 at 72 h in data set [1] is > 100 µM.

Compound `CC(C)C[C@H](NC(=O)OC(Cc1ccccc1)c1ccccc1)C(=O)N[C@@H](C[C@@H]1CCNC1=O)C(O)S(=O)(=O)O` (stereo partly drawn) [Compound 24c, Sodium (2S)-2-((2S)-2-(((1,2-diphenylethoxy)carbonyl)amino)-4-methylpentanamido)-1-hydroxy-3-((S)-2-oxopyrrolidin-3-yl)propane-1-sulfonate] displayed a 50% inhibitory concentration (IC50) at 3CLpro of SARS-CoV-2 of 3500 nM. Moreover, the CC50 at 72 h in data set [1] is > 100 µM.

The values above are taken from US12583820B2, “Broad spectrum antivirals against coronavirus” (priority 2020, dated 2026).
